Experiment [1] concerns the target T1, ALDH1A1 (Homo sapiens, UniProt P00352, N121S).
T1 sequence (P00352 2-501 N121S): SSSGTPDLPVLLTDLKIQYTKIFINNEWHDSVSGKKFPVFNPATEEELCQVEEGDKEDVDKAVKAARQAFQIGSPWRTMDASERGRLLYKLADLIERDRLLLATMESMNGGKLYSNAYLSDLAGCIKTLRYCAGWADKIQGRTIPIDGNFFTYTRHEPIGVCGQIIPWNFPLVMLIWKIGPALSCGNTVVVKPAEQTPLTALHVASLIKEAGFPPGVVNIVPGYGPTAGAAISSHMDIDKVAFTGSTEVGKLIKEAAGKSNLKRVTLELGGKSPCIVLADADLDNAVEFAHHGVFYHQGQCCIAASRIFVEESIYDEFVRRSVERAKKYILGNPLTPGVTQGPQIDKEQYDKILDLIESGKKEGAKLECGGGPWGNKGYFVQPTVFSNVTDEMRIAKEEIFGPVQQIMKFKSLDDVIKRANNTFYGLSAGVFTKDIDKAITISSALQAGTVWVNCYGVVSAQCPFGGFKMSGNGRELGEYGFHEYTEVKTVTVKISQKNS
Put plainly: biochemical. To be noted: read-out: % of control remaining.

A further experiment has as its target T2, ALDH3A1 (Homo sapiens, UniProt P30838).
T2 sequence (P30838 1-453): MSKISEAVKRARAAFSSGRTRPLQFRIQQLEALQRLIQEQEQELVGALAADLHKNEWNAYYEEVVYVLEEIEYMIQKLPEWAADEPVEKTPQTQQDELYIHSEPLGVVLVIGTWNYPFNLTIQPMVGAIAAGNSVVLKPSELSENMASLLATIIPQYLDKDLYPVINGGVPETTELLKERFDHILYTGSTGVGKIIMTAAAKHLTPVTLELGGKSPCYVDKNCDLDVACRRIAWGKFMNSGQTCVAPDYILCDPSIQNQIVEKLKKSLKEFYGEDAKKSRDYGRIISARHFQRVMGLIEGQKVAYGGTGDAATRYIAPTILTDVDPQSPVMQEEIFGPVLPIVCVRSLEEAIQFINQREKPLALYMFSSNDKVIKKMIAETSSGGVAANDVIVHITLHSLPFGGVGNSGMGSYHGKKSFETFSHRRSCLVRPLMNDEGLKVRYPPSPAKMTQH
Put plainly: biochemical. To be noted: read-out: % of control remaining.

For a further experiment, the target named is T3, ALDH2 (Homo sapiens, UniProt P05091).
T3 sequence (P05091 18-517): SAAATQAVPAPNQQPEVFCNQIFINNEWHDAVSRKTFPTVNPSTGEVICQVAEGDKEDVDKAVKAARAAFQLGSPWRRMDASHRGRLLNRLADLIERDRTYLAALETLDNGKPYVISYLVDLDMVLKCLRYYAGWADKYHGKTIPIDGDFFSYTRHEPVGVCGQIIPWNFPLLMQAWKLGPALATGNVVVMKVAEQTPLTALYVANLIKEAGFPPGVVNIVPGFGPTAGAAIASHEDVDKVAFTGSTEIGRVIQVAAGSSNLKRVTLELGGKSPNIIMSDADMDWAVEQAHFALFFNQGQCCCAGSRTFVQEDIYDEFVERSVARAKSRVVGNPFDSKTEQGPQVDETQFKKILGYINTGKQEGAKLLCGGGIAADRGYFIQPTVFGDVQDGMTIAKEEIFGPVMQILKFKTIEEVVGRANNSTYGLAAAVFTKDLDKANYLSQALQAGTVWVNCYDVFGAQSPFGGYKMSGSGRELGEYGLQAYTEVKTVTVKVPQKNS
Put plainly: propionaldehyde dehydrogenase assay. The settings on record: read-out: ALDH2. Format: biochemical.

The target in experiment [2] is T1, ALDH1A1. Put plainly: propionaldehyde dehydrogenase assay. Format: biochemical. The settings on record: read-out: ALDH1A1 ^*.
Another experiment deals with T4, ALDH1B1 (Homo sapiens, UniProt P30837).
T4 sequence (P30837 18-517): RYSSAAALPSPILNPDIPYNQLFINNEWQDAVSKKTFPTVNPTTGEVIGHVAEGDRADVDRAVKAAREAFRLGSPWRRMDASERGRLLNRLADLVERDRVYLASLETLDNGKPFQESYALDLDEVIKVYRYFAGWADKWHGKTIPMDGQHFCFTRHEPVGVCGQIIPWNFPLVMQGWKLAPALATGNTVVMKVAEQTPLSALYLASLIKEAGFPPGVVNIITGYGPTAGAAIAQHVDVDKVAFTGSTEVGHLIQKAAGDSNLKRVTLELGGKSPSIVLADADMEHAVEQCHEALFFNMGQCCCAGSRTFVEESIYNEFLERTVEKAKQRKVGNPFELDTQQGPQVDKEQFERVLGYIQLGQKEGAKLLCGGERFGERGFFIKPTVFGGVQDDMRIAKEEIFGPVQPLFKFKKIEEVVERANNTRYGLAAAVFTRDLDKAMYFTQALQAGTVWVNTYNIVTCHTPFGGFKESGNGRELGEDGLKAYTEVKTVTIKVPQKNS
In words: propionaldehyde dehydrogenase assay. The format is biochemical. The settings on record: read-out: % inhibition at 10 μM.

The target in the next experiment is T5, ALDH1A3 (Homo sapiens, UniProt P47895).
T5 sequence (P47895 2-512): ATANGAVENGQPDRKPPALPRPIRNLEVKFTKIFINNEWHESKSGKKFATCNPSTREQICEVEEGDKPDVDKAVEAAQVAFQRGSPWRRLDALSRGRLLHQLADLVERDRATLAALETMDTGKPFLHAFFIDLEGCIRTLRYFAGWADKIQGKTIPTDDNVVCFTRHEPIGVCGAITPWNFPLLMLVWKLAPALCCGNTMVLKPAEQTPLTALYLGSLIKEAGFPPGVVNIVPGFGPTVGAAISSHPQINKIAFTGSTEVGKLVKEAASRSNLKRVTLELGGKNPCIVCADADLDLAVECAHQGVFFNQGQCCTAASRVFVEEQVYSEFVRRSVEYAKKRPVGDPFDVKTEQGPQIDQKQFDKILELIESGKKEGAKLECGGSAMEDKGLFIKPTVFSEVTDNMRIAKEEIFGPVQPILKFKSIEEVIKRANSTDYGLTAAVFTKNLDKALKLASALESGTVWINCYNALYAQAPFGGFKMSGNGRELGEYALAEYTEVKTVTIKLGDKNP
In words: propionaldehyde dehydrogenase assay. Format: biochemical. To be noted: read-out: % inhibition at 10 μM.

In a further experiment the target is T6, ALDH1A2 (Homo sapiens, UniProt O94788).
T6 sequence (O94788 1-518): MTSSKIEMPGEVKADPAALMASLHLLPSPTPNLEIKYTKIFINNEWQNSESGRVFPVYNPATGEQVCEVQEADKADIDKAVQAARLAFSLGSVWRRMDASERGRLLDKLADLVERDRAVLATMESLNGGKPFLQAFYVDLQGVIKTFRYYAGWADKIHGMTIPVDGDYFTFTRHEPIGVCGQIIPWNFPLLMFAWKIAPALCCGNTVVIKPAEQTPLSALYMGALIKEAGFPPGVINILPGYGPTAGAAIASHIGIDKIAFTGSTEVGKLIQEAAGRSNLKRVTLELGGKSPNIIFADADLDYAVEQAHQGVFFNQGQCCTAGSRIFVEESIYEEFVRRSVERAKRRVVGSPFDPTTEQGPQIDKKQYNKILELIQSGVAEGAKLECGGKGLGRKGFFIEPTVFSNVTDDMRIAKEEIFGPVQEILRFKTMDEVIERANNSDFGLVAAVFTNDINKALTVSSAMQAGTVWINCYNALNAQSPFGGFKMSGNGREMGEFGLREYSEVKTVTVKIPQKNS
In words: propionaldehyde dehydrogenase assay. The format is biochemical. To be noted: read-out: % inhibition at 10 μM.

`Cc1oc2cc3oc(=O)c(C)c(C)c3cc2c1C` [2P4, 2,3,5,6-tetramethylfuro[3,2-g]chromen-7-one]: the remaining activity at 10 µM on ALDH1A1 [1] stood at 89.3%; on ALDH3A1 it was 87.8%.

In the case of `COC(=O)C(C)Oc1ccc2c(C)cc(=O)oc2c1` (centres unmarked) [2BS4, methyl-2-[(4-methyl-2-oxo-2H-chromen-7-yl)oxy]propanoate], the activity at 10 µM at ALDH2 was determined as 10.3%.

With `CCCc1c(C)c2cc3c(C)c(C)oc3cc2oc1=O` [2P3, 2,3,5-trimethyl-6-propyl-7H-furo[3,2-g]chromen-7-one], the activity at 10 µM is 1.5% at ALDH2 and 40.8% on ALDH1A1 [2]. For the same compound, the inhibition at 10 µM on ALDH1B1, on ALDH1A3 and on ALDH1A2 was > 60% in each case.

As for `CCCc1c(C)c2cc3c(C)coc3cc2oc1=O` [2CB5, 3,5-dimethyl-6-propylfuro[3,2-g]chromen-7-one], the activity at 10 µM was 7.6% at ALDH2 and 58.6% at ALDH1A1 [2]. Further, the remaining activity at 10 µM at ALDH3A1 is 87.6%.

As a reminder, the inhibition is the share of the control response that was lost under treatment.
